Entries after “also recorded” stand apart in the source; their conditions may differ.
Legend:
V2R [1] = biological target: T1, V2R (Homo sapiens, UniProt P30518); settings: ligand is inverse agonist in the AC pathway; leads to activation of the ERK cascade; cited from earlier work
Target sequence in this assay (P30518 whole entry): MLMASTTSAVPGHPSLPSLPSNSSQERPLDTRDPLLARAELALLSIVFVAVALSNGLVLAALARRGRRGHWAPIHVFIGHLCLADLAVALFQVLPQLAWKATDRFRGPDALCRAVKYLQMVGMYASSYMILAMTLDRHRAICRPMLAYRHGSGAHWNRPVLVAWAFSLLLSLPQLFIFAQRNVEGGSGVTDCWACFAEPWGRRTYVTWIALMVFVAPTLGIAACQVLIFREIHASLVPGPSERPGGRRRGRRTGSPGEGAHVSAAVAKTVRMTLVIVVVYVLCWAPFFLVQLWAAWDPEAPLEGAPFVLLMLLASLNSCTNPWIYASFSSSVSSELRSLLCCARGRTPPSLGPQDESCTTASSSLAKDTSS
Target sequence in this assay (P32121 whole entry partner): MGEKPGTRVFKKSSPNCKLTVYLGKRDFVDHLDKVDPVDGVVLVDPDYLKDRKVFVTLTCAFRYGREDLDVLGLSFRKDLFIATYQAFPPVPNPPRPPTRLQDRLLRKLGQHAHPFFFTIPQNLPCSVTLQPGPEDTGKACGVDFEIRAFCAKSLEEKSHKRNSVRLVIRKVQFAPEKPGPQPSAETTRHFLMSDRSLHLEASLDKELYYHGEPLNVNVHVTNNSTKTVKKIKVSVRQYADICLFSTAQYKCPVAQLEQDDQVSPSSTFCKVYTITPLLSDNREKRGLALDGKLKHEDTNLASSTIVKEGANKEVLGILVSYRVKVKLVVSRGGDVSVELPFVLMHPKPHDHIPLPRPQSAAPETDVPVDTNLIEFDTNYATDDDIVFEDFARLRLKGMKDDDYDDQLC

V2R [2] = biological target: T1, V2R; test: Intramolecular BRET1 of double-brilliance β-arr (Luc-β-arr-YFP): conformational change of β-arr; assay type: cell-based; parameters: expressed in transfected cells; host or cells: HEK293; settings: HEK293 cells co-expressing V2R and Luc-β-arr-YFP
Target sequence in this assay (P30518 whole entry): as the sequence (P30518 whole entry) above
Method: HEK293 cells were transfected with the indicated plasmids and BRET was measured at 25° C. in the presence of coelenterazine h. […] Data are the mean±s.e.m. of at least three independent experiments. *P<0.01 between treated and control condition.
The basal BRET signals were subtracted from each condition to express the data as ligand-induced BRET increase.
BRET assays. […] Briefly, cells were distributed in 96-well microplates (Corning, Corning, USA) and incubated with or without agonist for the indicated time at 25° C. The appropriate Luc substrate was added to a final concentration of 5 mM, either simultaneously with the agonist (time course) or following agonist treatment (single measurement or dose dependency), and readings were collected using a Multilabel Reader Mithras LB 940 (Berthold Technologies, Bad Wildbad, Germany). […] The BRET signal was determined by calculating the ratio of the light emitted by the fluorescent acceptor and the light emitted by Luc. The values were corrected by subtracting the background BRET signals detected when Luc-β-arr was expressed alone.

SMILES: CCOc1ccc2c(c1)C1(CCC(OCCN3CCOCC3)CC1)C(=O)N2S(=O)(=O)c1ccc(C(=O)NC(C)(C)C)cc1OC (centres unmarked) [SR121463]
- recruitment of β-arr (V2R [1]): induced the recruitment of β-arr
- ligand-induced intramolecular BRET increase (V2R [2]): significantly lower than that induced by AVP treatment; also recorded: can promote an increase in the BRET signal
